Data published in patent US12403114B2, “Cannabinoid acid ester compositions and uses thereof” (EPM (IP), INC., priority 2019, dated 2025).

Experiments:
[1] = molecular target: T1, glucose transporter 2 (GLUT2) (Homo sapiens, UniProt P11168); assay: 2-NBDG glucose uptake in transfected HEK293t cells; assay type: cell-based; conditions: 50-0.1 μM tested
T1 construct: expressed in transfected cells; host or cells: HEK293t
T1 sequence (P11168 1-524): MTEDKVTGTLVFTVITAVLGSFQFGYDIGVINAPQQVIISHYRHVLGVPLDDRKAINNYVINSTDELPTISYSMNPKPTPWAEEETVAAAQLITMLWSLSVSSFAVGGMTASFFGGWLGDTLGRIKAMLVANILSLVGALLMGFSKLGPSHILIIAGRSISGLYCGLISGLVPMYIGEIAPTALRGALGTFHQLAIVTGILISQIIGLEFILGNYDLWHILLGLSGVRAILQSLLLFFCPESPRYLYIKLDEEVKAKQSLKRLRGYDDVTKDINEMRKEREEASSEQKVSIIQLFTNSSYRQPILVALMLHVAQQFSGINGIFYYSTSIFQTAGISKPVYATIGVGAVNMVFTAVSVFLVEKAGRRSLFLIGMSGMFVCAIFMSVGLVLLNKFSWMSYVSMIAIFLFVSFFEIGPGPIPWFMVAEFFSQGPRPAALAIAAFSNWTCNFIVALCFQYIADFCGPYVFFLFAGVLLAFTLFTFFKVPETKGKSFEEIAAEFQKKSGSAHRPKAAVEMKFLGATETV
Protocol: In vitro assays for measuring glucose uptake were designed to assess whether EPM-301 and EPM-302 compounds are capable of inhibiting or increasing glucose uptake via glucose transporters (GLUTs).
Transfected HEK293t cells, which express the glucose transporter 2 (GLUT2), were cultured in a 96 well plate and maintained at 37° C. in 5% CO2 in DMEM medium supplemented with 10% FCS, 2 mM 1-glutamine, 1 mM sodium pyruvate, 100 U/mL penicillin, and […] streptomycin for 24 h. The medium was then washed with a choline chloride Na^+-free buffer (CCB), in which only GLUTs (and not the sodium/glucose transporters [SGLTs]) were active. The wells were then added with CCB/CCB+2-NBDG (a fluorescent derivative of glucose). Compounds were tested in a range of concentrations for their ability to inhibit/increase 2-NBDG uptake into the cells. After 1.5 h incubation, cells were washed with CCB and incubated with 1 μg/μL of Hoechst for 15 mins at 37° C. and protected from light. Fluorescence was measured by the Cytation-3 plate reader at ex:485 nm/em:528 nm and ex:350 nm/em:461 nm for 2-NBDG Hoechst, respectively. Results of the 2-NBDG levels were normalized to Hoechst levels of each well, and presented as a change in the uptake of 2-NBDG in comparison with Vehicle-treated group.
Vehicle solution (choline chloride buffer), EPM-301 (50-0.1 μM), and EPM-302 (50-0.1 μM) were used for the experiments.
Values are expressed as mean±SEM. Unpaired two-tailed student's t-test was used to determine the differences between the groups. Significance was set at p<0.05. *versus vehicle; #versus control.

[2] = system: DSS induced acute colitis; assay: DSS induced acute colitis mouse model, EPM-301 versus EPM-302, Example 13; assay type: in vivo, C57BL/6 mice; conditions: 10 mg/kg
Protocol: Colitis was induced in 10 weeks old female C57BL/6 mice using dextran sodium sulphate (DSS). Mice were fed for 8 days with 2% (wt/vol) DSS in their drinking water. […] EPM-302 served as an additional control.
(§1) Weight loss was measured on days 1, 3, 5, 8, and 10.
(§2) Next, the mice were sacrificed and the length of their colons were measured.
Cytokine levels of IL-6 and TNFα were measured using ELISA kits (R&D Systems, USA). Colon TNFα (FIG. 19), blood IL-6 (FIG. 20), levels were lower in mice treated with CBDA-Me (EPM-301) as compared to EPM-302. Similarly, the MEICS score of EPM-301 treated subjects were also lower than EPM-302 treated subjects (FIG. 21). Representative photos of colonoscopy can be seen in FIG. 22A-22D.

[3] = system: Th17 (psoriasis) mediated inflammation; assay: Ex vivo induced inflammation of human skin explants, Th17 stimulation; assay type: cell-based; conditions: topical at 40 h and 16 h prior to stimulation; degree comparable/improved to 1% hydrocortisone ointment (FIG. 7)
Protocol: (§3) The efficacy of CBDA-Me was compared to that of corticosteroid treatment in an ex vivo model of induced inflammation of human skin explants (see for example WO2019/063122 and WO2014/182655).
(§4) Freshly excised healthy human skin was dermatomed to an approximate thickness of 750±100 μm. The dermatomed skin was cut into 1 cm^2 sections and mounted onto static Franz cells with a dosing area of approximately 0.6 cm^2.
(§5) The experiment was performed as follows: • (i) Static Franz cells (n=4 per treatment), with an average surface area of approximately 0.6 cm^2 and a volume of approximately 2.0 mL were employed. • (ii) Skin was mounted onto the static Franz cell, Stratum corneum side up, and clamped into place. • (iii) The receptor compartment was filled with approximately 2 mL of warm (ca. 37° C.) Cornification media. • (iv) CBDA-Me or 1% Perrigo® hydrocortisone ointment (control) was applied topically at 40 hours and 16 hours prior to stimulation and was incubated at 37° C. with 5% C02. • (v) The contents of the receptor compartment from each cell was vacuum aspirated and replaced with 2 mL pre-warmed (ca. 37° C.) cornification media, containing either Th1 or Th17 stimulation cocktail. • (vi) Tissue explants were harvested at 24 hours post-stimulation and placed in RNAlater® solution for further processing. […]

[4] = system: DSS induced acute colitis; assay: DSS induced acute colitis mouse model, Example 11; assay type: in vivo, C57BL/6 mice
Protocol: The therapeutic effect of CBDA-Me on inflammatory bowel disease (IBD) was examined in an acute colitis mouse model. Colitis was induced in 10 weeks old female C57BL/6 mice using dextran sodium sulphate (DSS). Mice were fed for 8 days with 2% (wt/vol) DSS in their drinking water. Mice were administered (3 animals in each group) one of the following treatments by gavage: CBD (400 mg/kg), CBDA-Me (10 mg/kg or 40 mg/kg), DSS alone (untreated control), prednisone (90 mg/kg, control), none (healthy mice).
as §1, §2
Cytokine levels of IL-6 and TNFα were measured using ELISA kits (R&D Systems, USA). Colon TNFα (FIG. 10), blood IL-6 (FIG. 11), and mouse endoscopic index of colitis severity (METICS) scoring levels (FIG. 12) were lower in mice treated with CBDA-Me compared to CBD. Representative photos of colonoscopy can be seen in FIG. 13A-13E.

[5] = system: Human Endometrial Stromal Cell Line (SHT290); assay: In vitro endometriosis model: attachment and proliferation of endometrial stromal cells; assay type: cell-based; conditions: added to the medium; dose dependent fashion
Protocol: Cultured cells from Human Endometrial Stromal Cell Line (SHT290) were used. CBDA-Me was added to the medium and the attachment of cells and their proliferation rate were measured.

[6] = system: endometriosis induced by implantation of rat uterine cornu on the mesenterium; assay: In vivo rat endometriosis model, pain response to oxytocin; conditions: day 24; injected intra-peritoneally after 21 days; as compared to the control (saline)
Protocol: Endometriosis was induced by implantation of rat uterine comu on the mesenterium. The tissue was allowed to proliferate in vivo for 21 days. After 21 days, rats in the control group were injected intra-peritoneally with saline while rats in the experimental group were injected with CBDA-Me. Pain response to oxytocin was measured on day 24. The pain response decreased by 50% in the group treated with CBDA-Me as compared to the control.

[7] = system: Th1 (chronic and acute atopic dermatitis) mediated inflammation; assay: Ex vivo induced inflammation of human skin explants, Th1 stimulation; assay type: cell-based; conditions: topical at 40 h and 16 h prior to stimulation; degree comparable/improved to 1% hydrocortisone ointment (FIG. 6)
Protocol: as §3, §4, §5

[8] = system: chronic colitis in IL-10 KO mice; assay: Chronic colitis mouse model (IL-10 KO), Example 12; assay type: in vivo; conditions: IL-10 KO mice fed twice a day for 13 weeks
Protocol: Mice with targeted discruption of the IL-10 gene (IL-10 KO) and littermate wild-type controls (IL-10 WT) were used (see for example Scheinin et al., Clin. Exp. Immunol., 2003, 133:38-43). After 4 weeks of age mice were fed twice a day for 13 weeks with one of the following treatments: CBD, CBDA-Me, an anti-TNF antibody (control), none (untreated control mice). The CBDA-Me efficacy is compared to CBD and controls.
Cytokine levels of IL-1B and TNFα were measured using ELISA kits (R&D Systems, USA). Colon TNFα (FIG. 14), blood IL-1b (FIG. 15), and mouse endoscopic index of colitis severity (MEICS) scoring levels (FIG. 16) were lower in mice treated with CBDA-Me compared to CBD.

[9] = system: partial meniscectomy/ACL transection rat model of surgical induced osteoarthritis and pain induced incapacitance; assay: Weight bearing in rat meniscectomy model versus hyaluronate and corticosteroid, Example 6; assay type: in vivo
Protocol: Rats were allowed to acclimatize for 1 week, followed by assessment of their weight bearing preference using an incapacitance meter. Unilateral medical meniscectomy and anterior cruciate ligament […] (MMX/ACLT) surgery was performed on the right knee of a subject rat. Weight bearing preference was tested before and after surgery. After 2 weeks, treatments with both intra-articular (1) and. intra-peritoneal (6) administrations of EPM301 began in the EPM301 group. In the hyaluronate (HA) and corticosteroid (CS) groups, a single intra-articular injection was performed 2 weeks after model induction. Weight bearing preference was then assessed 4 and 7 days after the start of therapy.
Wistar Rats (HsdHan female rats 225-249 grams) were acquired from Envigo. The rats were evaluated using an incapacitance tester. They were tested pre-operation, one-week post-operation, two weeks post-operation, prior to injection, 4 and 7 days post injections.
EPM-301 was dissolved in a solution mixture of 1:1:18 EtOH:cremophor:seline to a final concentration of 3.5 mg/mL. Hyaluronic acid (Arthrease, 1% sodium hyaluronate) and Dexamethasone (kem Pharma, Venus, 72, Pol. Ind. Colom II, 08228 Terrassa, Barcelona) were acquired.
Intra-articular (i.a.) injection was carried out with 100 uL and intra-peritoneal (i.p.) injections were carried out with 150 uL. All were injected i.a. in the first day. EPM-301 was injected via i.p. administration on the first day, and for 5 additional days everyday via i.p. administration.
Student's t-test was performed at the last follow-up time to determine effect of the therapy as primary endpoint. The level of significance was 0.05 alpha. ANOVA was used to compare all time points, a post-hob analysis with the Scheffe all comparisons method was performed. Calculations were performed using the Analyze-it Excel add-on function.
The percentage of weight bearing was calculated as the amount of weight born (in grams) on the right hind limb divided by the amount of weight born on the left hind limb. This ratio was expressed as percentage weight bearing. Prior to operation the Rt/Lt weight bearing in both groups was similar. There were 4 animals in the EPM-301 treated group and 8 animals in each of the HA and CS treated groups, with a total of 20 tested subjects.

Compound: CCCCCc1cc(O)c(C2C=C(C)CCC2C(C)C)c(O)c1C(=O)OC (stereo not drawn) [EPM-302]
- concentration at which the effect on glucose transport was observed [1]: all concentrations tested
- glucose uptake (2-NBDG) in HEK293 cells ([1]; 1.5 h incubation, versus vehicle (FIG. 36A, 36B)): significantly reduce
- therapeutic effect [2]: not enough to induce a therapeutic effect

Compound: C=C(C)[C@@H]1CCC(C)=CC1c1c(O)cc(CCCCC)c(C(=O)OC)c1O (stereo in doubt) [EPM-301, cannabidiolic acid methyl ester]
- Th17 mediated inflammation (IL17α, IL22, CXCL10, IL36g, SerpinB4 by RT-qPCR) [3]: inhibition
- weight loss ([4]; 40 mg/kg by gavage, compared to CBD (400 mg/kg), days 1-10 (FIG. 8)): reduced
- colon length ([4]; 40 mg/kg by gavage, versus CBD and untreated control mice, similar to prednisone (FIG. 9)): greater
- mouse endoscopic index of colitis severity scoring ([4]; compared to CBD (FIG. 12)): lower
- colon TNFα ([4]; compared to CBD, ELISA (FIG. 10)): lower
- blood IL-6 ([4]; compared to CBD, ELISA (FIG. 11)): lower
- attachment of cells [5]: decrease
- proliferation rate [5]: decrease
- decrease of pain response to oxytocin [6]: 50%
- Th1 mediated inflammation (IFNγ, TNFα, IL1β, IL2, IL13 by RT-qPCR) [7]: inhibition
- colon TNFα ([8]; compared to CBD (FIG. 14)): lower
- blood IL-1b ([8]; compared to CBD (FIG. 15)): lower
- mouse endoscopic index of colitis severity (MEICS) scoring ([8]; compared to CBD (FIG. 16)): lower

Compound: C[C@@H]1C[C@H]2[C@@H]3CCC4=CC(=O)C=C[C@]4(C)[C@@]3(F)[C@@H](O)C[C@]2(C)[C@@]1(O)C(=O)CO [CS, Dexamethasone, reference compound]
- Rt limb weight bearing ([9]; following injections, EPM-301 i.a. once plus i.p. 6 days, HA and CS single i.a. injection): 62.1%
- weight bearing ([9]; immediately prior to injection, two weeks following model induction (baseline before treatment)): 52.5%
